Patent US20210275562A1, “CANCER TREATMENT METHODS” (priority 2020, published 2021)

How the values were obtained:
S phase cells = assay: BRDU/EDU injection labelling of S phase cells in living animals; type: in vivo, mouse
From the text: It has been estimated in the literature that the cell cycle would be between 12 hr and 2 days in the crypt cells of the gut. These are the cells that are constantly dividing and give rise to mature gut cells forming the lining of the intestinal tract. […] Both EDU and BRDU are incorporated only into DNA of cells actively synthesizing DNA, S phase cells. Both are rapidly removed from circulation if not incorporated into DNA, so that a cell containing EDU or BRDU in its DNA would have been in S phase at the time of injection, or shortly thereafter. Indeed, an injection of either marker is effectively a 1 hr pulse with that marker. BRDU is identified with an antibody stain, while EDU is identified by a separate chemical stain. Different fluorochromes are used to identify the two stains, so that cells which incorporated either, or both, can readily be identified. With the use of our image analysis approach, the labeling with each fluorochrome can be accurately quantitated.
Thus, with EDU and BRDU, it was possible to determine which cells had been in S phase at two different times. BRDU was normally injected intraperitoneally (IP) into animals at time zero. […] 40 minutes following the EDU injection the animals were euthanized and tissues collected, imbedded in paraffin, and stained. It was possible to tell which cells had been in S phase at the beginning of the experiment from the BRDU stain. […]

crypt cells = assay: Proof of principle: two EDU injections in mice given BRDU in drinking water; type: in vivo, mouse
Description: The experiment to validate this procedure was designed as follows: Mice were given BRDU in their drinking water at the beginning of the experiments. This constant supply of BRDU would label all proliferative cells over the length of the experiment. 4 hr after BRDU-containing drinking water was given to the animals, two injections of EDU were given. These injections were spaced 5, 8, 11, 14, 17, and 20 hr apart in separate animals. At 40 min following the final injection tissue was collected, fixed, imbedded, stained, and analyzed as described above. The goal was to determine how many cells were labeled with BRDU and NOT WITH EDU. EDU in this experiment represents the toxic treatment. Any cell labelled with EDU would be expected to be killed by the appropriate S phase specific toxin. The surviving cells would, therefore, be identified by BRDU positive, EDU negative cells. As with many proof of principle experiments, this one has a drawback that must be considered. BRDU remains present in cells that differentiate and move up the villi towards the lumen of the gut. Cells on the verge of terminal differentiation would be labelled with BRDU but cease dividing prior to the administration of EDU. This would result in an over-estimate of the number of BRDU+ and EDU− cells (those that survive the treatments), particularly at later times in the analysis. […]

SMILES | effective pulse length of the marker after one injection (S phase cells; mouse, in vivo) [h] | effective pulse length of the marker after one injection (S phase cells; rapidly removed from circulation if not incorporated into DNA) [h] | BRDU positive cells remaining unlabeled with EDU (cells proposed to survive treatment) (crypt cells; two EDU injections spaced 14 hr apart) [%] | level of BRDU+ and EDU- cells (cells proposed to survive treatment) (crypt cells; two EDU injections spaced 17 hr apart, may be overestimated)
O=c1[nH]c(=O)n([C@H]2C[C@H](O)[C@@H](CO)O2)cc1Br [BRDU, bromodeoxyuridine] | 1 |  |  | 
C#Cc1cn([C@H]2C[C@H](O)[C@@H](CO)O2)c(=O)[nH]c1=O [EDU, 5-ethynyl-2′-deoxyuridine] |  | 1 | ~40 | remain high
